Test results taken from patent publication US20250059174A1, “Pharmaceutical Compounds and Compositions as C-Kit Kinase Inhibitors” (Enanta Pharmaceuticals, Inc., priority 2023, published 2025).

What was measured:
[1] = target: Recombinant human c-KIT kinase (Homo sapiens (Human), UniProt P10721); assay: c-KIT kinase chemiluminescence assay (ADP-Glo); format: biochemical; conditions: ATP 50 μM
Procedure: The c-KIT Kinase Enzyme System (V4498) and ADP-Glo™ Kinase Assay kit (V6930) were purchased from Promega (Madison, WI). DMSO (D2650) was purchased from Sigma-Aldrich (Burlington, MA).
Kinase Reaction: The kinase assay was based on the recommended protocol by c-KIT Kinase Enzyme System from Promega. Recombinant human c-KIT kinase in 3 μL of assay buffer (40 mM Tris pH 7.5, 20 mM MgCl2, 0.1 mg/mL BSA and 50 μM DTT) was added to the test or high control wells and 3 μL of assay buffer was added to the low control wells. The microplate was centrifuged at 800 rotations per minute (rpm) for 60 s and incubated at room temperature (RT) for 30 min. Next, 2 μL of buffered ATP and polyEY substrate solution was added to all wells. The microplate was centrifuged at 800 rpm for 60 s and incubated at RT for 2 h.
ADP detection with ADP-Glo™ Kinase Assay: After the kinase reaction incubation, 5 μL of ADP-Glo™ reagent was added to all wells. The microplate was centrifuged at 800 rpm for 60 s and incubated at RT for 40 min. Ten microliter (10 μL) of Kinase Detection Reagent (Luciferin-Luciferase system) was then added to all wells. The microplate was centrifuged at 800 rpm for 60 s and incubated at RT for 60 min. Kinase activity was measured as increase in luminescence at RT in an Envision plate reader equipped with 560 nm filters and operating in endpoint mode. Data Analysis: Endpoint chemiluminescence from high and low control wells were used to calculate normalized c-KIT activity at various concentrations of test compounds. The normalized activities were fitted to inhibitor-versus-normalized response fit in GraphPad Prism 7 to determine half-maximal inhibitory concentration (IC50) and hill coefficient values (H).
Where I is the inhibitor concentration and H is the Hill coefficient.

M-07e cells = assay: M-07e cellular assay (SCF-mediated cell proliferation); format: cell-based; conditions: Homo sapiens, 72 hours, CellTiter Glo
Procedure: M-07e cells (Creative Bioarray, CSC-C0249) which endogenously express human c-KIT were used to evaluate the effect of compounds on stem cell factor (SCF)-mediated cell proliferation. M-07e cells were cultured in growth media (RPMI+10% FBS+1% penicillin/streptomycin+10 ng/mL GM-CSF) at 5E5-1.5E6 cells/mL, replenishing media every 3-4 days. 1.5E4 cells were seeded per well in 384 well tissue culture treated plates in 20 μL assay media (RPMI+[…]+1% penicillin/streptomycin) without growth factor stimulation and incubated at 37° C. in a CO2 humidity-controlled incubator. Twenty-four hours later, three-fold serially diluted test compounds in media containing SCF (at the previously determined EC90) were added to the plated M-07e cells and incubated for an additional 72 hours. Cell viability was determined by adding 25 μL CellTiter Glo (Promega) to the cells and the luminescence was measured using a Perkin Elmer Envision plate reader. The EC50 was determined using GraphPad Prism. Percent cell growth was determined after normalizing the curve to the mean RLU high control (no compound control wells) at 100% and the mean RLU low control (no SCF control wells) at 0%.

Chain of Recombinant human c-KIT kinase (P10721 26-976): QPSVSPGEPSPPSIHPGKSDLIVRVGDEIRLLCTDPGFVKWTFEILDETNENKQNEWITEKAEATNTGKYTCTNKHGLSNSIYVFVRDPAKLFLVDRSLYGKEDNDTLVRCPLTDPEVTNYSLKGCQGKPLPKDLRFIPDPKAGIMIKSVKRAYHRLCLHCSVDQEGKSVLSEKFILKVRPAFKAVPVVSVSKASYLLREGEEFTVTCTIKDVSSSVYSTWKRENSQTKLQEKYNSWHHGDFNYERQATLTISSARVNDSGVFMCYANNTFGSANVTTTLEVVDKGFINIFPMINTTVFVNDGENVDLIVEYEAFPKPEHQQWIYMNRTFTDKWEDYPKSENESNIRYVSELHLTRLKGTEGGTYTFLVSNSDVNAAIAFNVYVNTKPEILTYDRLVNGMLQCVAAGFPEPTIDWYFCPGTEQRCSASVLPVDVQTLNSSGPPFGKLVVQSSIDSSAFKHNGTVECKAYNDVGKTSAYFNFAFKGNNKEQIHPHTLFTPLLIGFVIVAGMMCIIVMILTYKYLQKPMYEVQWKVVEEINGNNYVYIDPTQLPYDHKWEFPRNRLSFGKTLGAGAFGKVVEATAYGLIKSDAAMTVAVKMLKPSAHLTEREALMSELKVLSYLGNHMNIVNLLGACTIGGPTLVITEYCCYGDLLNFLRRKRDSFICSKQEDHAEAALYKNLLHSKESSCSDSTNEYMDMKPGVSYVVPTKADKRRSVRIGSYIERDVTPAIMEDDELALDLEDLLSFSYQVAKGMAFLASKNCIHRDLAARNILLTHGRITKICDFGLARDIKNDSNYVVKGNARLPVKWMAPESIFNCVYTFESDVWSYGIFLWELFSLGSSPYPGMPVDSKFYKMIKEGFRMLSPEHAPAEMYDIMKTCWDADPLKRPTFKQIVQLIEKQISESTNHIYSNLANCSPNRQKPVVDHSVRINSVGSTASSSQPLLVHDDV

SMILES	IC50 [1] [nM]	EC50 (M-07e cells) [nM]
Cc1ccc(-c2noc([C@H]3C[C@@H]3F)n2)cc1NC(=O)c1cnc2n1CCC2 [Example 37]	> 1000	> 1000
CC(=O)Nc1ncc(C(=O)Nc2cc(-c3noc([C@H]4C[C@@H]4F)n3)ccc2C)s1 [Example 38]	100 to 1000	100 to 1000
Cc1ccc(-c2noc([C@H]3C[C@@H]3F)n2)cc1NC(=O)c1coc2ccccc12 [Example 39]	> 1000	> 1000
Cc1ccc(-c2noc([C@H]3C[C@@H]3F)n2)cc1NC(=O)c1n[nH]c2ncccc12 [Example 40]	> 1000	> 1000
Cc1ccc(-c2noc([C@H]3C[C@@H]3F)n2)cc1NC(=O)c1cnn2cc(Br)ccc12 [Example 41, 6-bromo-N-(5-(5-((1R,2S)-2-fluorocyclopropyl)-1,2,4-oxadiazol-3-yl)-2-methylphenyl)pyrazolo [1,5-a]pyridine-3-carboxamide]	< 100	100 to 1000
Cc1ccc(-c2noc([C@H]3C[C@@H]3F)n2)cc1NC(=O)c1cnn2ccc(Br)cc12 [Example 42, 5-bromo-N-(5-(5-((1R,2S)-2-fluorocyclopropyl)-1,2,4-oxadiazol-3-yl)-2-methylphenyl)pyrazolo[1,5-a]pyridine-3-carboxamide]	< 100	100 to 1000
Cc1ccc(-c2noc([C@H]3C[C@@H]3F)n2)cc1NC(=O)c1cnn2ccc(N3CC4(COC4)C3)cc12 [Example 43]	< 100	< 100
Cc1ccc(-c2noc([C@H]3C[C@@H]3F)n2)cc1NC(=O)c1cnn2ccc(N3CCS(=O)(=O)CC3)cc12 [Example 44]	< 100	< 100
COc1ccc(-n2cc(C(=O)Nc3cc(-c4noc([C@H]5C[C@@H]5F)n4)ccc3C)cn2)cc1 [Example 52]	100 to 1000	100 to 1000
Cc1ccc(-c2noc([C@H]3C[C@@H]3F)n2)cc1NC(=O)c1cnn2cc(N3CC4(COC4)C3)ccc12 [Example 54]	< 100	< 100
Cc1ccc(-c2noc([C@H]3C[C@@H]3F)n2)cc1NC(=O)c1cnn2ccc(C3CC3)cc12 [Example 55]	< 100	100 to 1000
Cc1ccc(-c2noc([C@H]3C[C@@H]3F)n2)cc1NC(=O)c1cnn2cc(C3CC3)ccc12 [Example 56]	< 100	100 to 1000
Cc1ccc(-c2noc([C@H]3C[C@@H]3F)n2)cc1NC(=O)c1cnn2cc(Cl)ccc12 [Example 57]	< 100	100 to 1000
COc1ccc2c(C(=O)Nc3cc(-c4noc([C@H]5C[C@@H]5F)n4)ccc3C)cnn2c1 [Example 58]	< 100	< 100
Cc1ccc(-c2noc([C@H]3C[C@@H]3F)n2)cc1NC(=O)c1cnn2ccc(Cl)cc12 [Example 59]	< 100	100 to 1000
COc1ccn2ncc(C(=O)Nc3cc(-c4noc([C@H]5C[C@@H]5F)n4)ccc3C)c2c1 [Example 60]	< 100	< 100
Cc1ccc2c(C(=O)Nc3cc(-c4noc([C@H]5C[C@@H]5F)n4)ccc3C)cnn2c1 [Example 61]	< 100	< 100
Cc1ccc(-c2noc([C@H]3C[C@@H]3F)n2)cc1NC(=O)c1cnn2cc(F)c(Br)cc12 [Example 62]	100 to 1000	> 1000
C/C=C/c1ccn2ncc(C(=O)Nc3cc(-c4noc([C@H]5C[C@@H]5F)n4)ccc3C)c2c1 [Example 69]	< 100	< 100
Cc1ccc(-c2noc([C@H]3C[C@@H]3F)n2)cc1NC(=O)c1cnn2ccc(CN3CCOCC3)cc12 [Example 70]	< 100	100 to 1000
Cc1ccc(-c2noc([C@H]3C[C@@H]3F)n2)cc1NC(=O)c1cnn2ccc(C=O)cc12 [Example 71]	< 100	100 to 1000

SMILES	IC50 [1] [nM]	EC50 (M-07e cells) [nM]
Cc1ccc(-c2noc([C@H]3C[C@@H]3F)n2)cc1NC(=O)c1cnn2ccc(CO)cc12 [Example 72]	< 100	100 to 1000
Cc1ccc(-c2noc([C@H]3C[C@@H]3F)n2)cc1NC(=O)c1cnn2cc(Cl)c(Br)cc12 [Example 73]	> 1000	> 1000
Cc1ccc(-c2noc([C@H]3C[C@@H]3F)n2)cc1NC(=O)c1cnn(-c2cccc(N)c2)c1 [Example 74]	100 to 1000	> 1000
Cc1ccc(-c2noc([C@H]3C[C@@H]3F)n2)cc1NC(=O)c1cnc(-c2ccccc2)o1 [Example 85]	100 to 1000	100 to 1000
Cc1ccc(-c2noc([C@H]3C[C@@H]3F)n2)cc1NC(=O)c1cnn2ccc(NC(=O)OC(C)(C)C)cc12 [Example 90]	100 to 1000	100 to 1000
Cc1ccc(-c2noc([C@H]3C[C@@H]3F)n2)cc1NC(=O)c1cnn2ccc(N)cc12 [Example 92]	< 100	< 100
Cc1ccc(-c2noc([C@H]3C[C@@H]3F)n2)cc1NC(=O)c1cnn2ccc(NC(=O)c3ccccc3)cc12 [Example 93]	100 to 1000	100 to 1000
Cc1ccc(-c2noc([C@H]3C[C@@H]3F)n2)cc1NC(=O)c1cnn2ccc(NC(=O)OC3CC3)cc12 [Example 94]	100 to 1000	100 to 1000
Cc1ccc(-c2noc([C@H]3C[C@@H]3F)n2)cc1NC(=O)c1cnn2ccc(NC(=O)OCc3ccccc3)cc12 [Example 95]	100 to 1000	100 to 1000
Cc1ccc(-c2noc([C@H]3C[C@@H]3F)n2)cc1NC(=O)c1cnn2ccc(NC(=O)NC3CC3)cc12 [Example 96]	100 to 1000	100 to 1000
Cc1ccc(-c2noc([C@H]3C[C@@H]3F)n2)cc1NC(=O)c1cn2ncsc2n1 [Example 97]	> 1000	> 1000
Cc1nc(Nc2ncc(C(=O)Nc3cc(-c4noc([C@H]5C[C@@H]5F)n4)ccc3C)s2)cc(N2CC3(COC3)C2)n1 [Example 98-1]	< 100	< 100
CC(=O)NC1CN(c2ncc(C(=O)Nc3cc(-c4noc([C@H]5C[C@@H]5F)n4)ccc3C)s2)C1 [Example 98-2]	> 1000	> 1000
Cc1ccc(-c2noc([C@H]3C[C@@H]3F)n2)cc1NC(=O)c1cnc(N2CC(C(=O)OC(C)(C)C)C2)s1 [Example 98-3]	> 1000	> 1000
Cc1ccc(-c2noc([C@H]3C[C@@H]3F)n2)cc1NC(=O)c1cnc(N2CC(C(=O)NC3CC3)C2)s1 [Example 98-5]	> 1000	> 1000
Cc1ccc(-c2noc([C@H]3C[C@@H]3F)n2)cc1NC(=O)c1ccc2c(c1)CC(=O)N2 [Example 98-6]	> 1000	> 1000
Cc1ccc(-c2noc([C@H]3C[C@@H]3F)n2)cc1NC(=O)c1ccc2[nH]c(=O)[nH]c2c1 [Example 98-7]	> 1000	> 1000
Cc1ccc(-c2noc([C@H]3C[C@@H]3F)n2)cc1NC(=O)c1cnc(N2CCC3(CCC(=O)N3)CC2)s1 [Example 98-8]	> 1000	> 1000
Cc1ccc(-c2noc([C@H]3C[C@@H]3F)n2)cc1NC(=O)c1cnn(-c2ccccc2)c1C [Example 98]	> 1000	> 1000
Cc1ccc(-c2noc([C@H]3C[C@@H]3F)n2)cc1NC(=O)c1cnc2n1CCc1ccccc1-2 [Example 100]	< 100	100 to 1000
Cc1ccc(-c2noc([C@H]3C[C@@H]3F)n2)cc1NC(=O)c1cnc2n1C(C)c1ccccc1-2 (stereo partly drawn) [Example 102]	< 100	100 to 1000
